From patent US12180137B1, “Solid forms of enantiopure deuterium-enriched bupropion and methods of use thereof” (DeuteRx, LLC, priority 2024, dated 2024)
Where a name gives a salt, the structure may show the parent alone.

Experiment: Particle size distribution by laser diffraction (Malvern Mastersizer 3000, wet dispersion)
Format: physicochemical
Settings: wet dispersion in Isopar G, average of three consecutive measurements
Method: Particle size distribution was analyzed using laser diffraction. The apparatus used was a Malvern Mastersizer 3000 equipped with a Hydro 3000S cell for wet dispersion measurements. The measuring range was 0.01-3500 μm, the dispersant used was Isopar G (dispersant RI 1.42). The scattering model used was Mie (material RI 1.50, AI 0.10). The cell was cleaned, filled with dispersant, aligned and the background measured (30 sec. for red light, 10 seconds for blue light). The pump speed was set at 2800 rpm. About 100 mg of the sample were dispersed in 0.5 ml of 2% w/w soy lecithin solution in isopar G, stirred gently with a glass rod and brought to 10 ml with isopar G. The suspension was sonicated for about a minute, then added dropwise to the measurement cell until an obscuration of 10-20% was obtained. The sample was then measured for 20 seconds with red light and 10 seconds with blue light. The results given, expressed in Dv(10), Dv(50) and Dv(90) are the average of three consecutive measurements (Table 3).

Row | Particle size distribution Dv(10) | Particle size distribution Dv(50) | Particle size distribution Dv(90) | SMILES
1 | 4.9 μm | 64 μm | 208 μm | CC(NC(C)(C)C)C(=O)c1cccc(Cl)c1 (racemic) [Bupropion HCl]
2 | 7.1 μm | 31 μm | 179 μm | [2H]N(C(C)(C)C)[C@@]([2H])(C)C(=O)c1cccc(Cl)c1 [Compound 101]
